{"source": "patent US12397007B2", "about": "“Methods of treatment with combinations of cannabidiol and psilocybin” (ECP Pharma, priority 2021, dated 2025)", "key": {"[1]": {"test_system": "adult rats exposed to a moderate fluid-percussion pulse over the right parietal cortex", "test": "Moderate fluid-percussion TBI, stereological volumetric analyses of contusion and cortical atrophy", "type": "in vivo, rat", "conditions": "approximately 4 weeks after injury; relative to injured vehicle-control animals; FIG. 5 right panel", "description": "(§1) Another study was conducted in rats to evaluate the synergy of an oral combination of psilocybin and CBD in mitigating TBI-induced pathology in a preclinical model of TBI. In this study, adult rats were exposed to a moderate fluid-percussion pulse over the right parietal cortex.\n(§2) Psilocybin (1.5 mg/kg) and/or CBD (5 mg/kg) in 1 mL of ddH2O (or vehicle/ddH2O alone) was dosed by oral gavage at 1-hour post-injury, and for 1×/day for 6 consecutive days thereafter, resulting in 7 total dosage administrations. Animals receiving psilocybin+CBD were exposed to a traumatic/fearful stimulus (predatory urine) to evaluate anxiety-like behavior. Outcome measurements included sensorimotor (cylinder test), cytoprotection (volumetric analyses of contusion and cortical atrophy), and neuroinflammation (microglia reactivity)."}, "rat blast model of TBI": {"test_system": "rat blast model of TBI", "test": "Rat blast model of TBI, light dark box", "type": "in vivo", "conditions": "CBD 5 mg/kg IP, psilocybin 1.5 mg/kg PO from one hour after injury, 7 total doses; vs vehicle; FIG. 2", "description": "This increased time spent in light was not seen with either CBD or psilocybin when dosed separately."}, "Iba1+ microglia": {"test_system": "Iba1+ microglia", "test": "Moderate fluid-percussion TBI, immunohistochemical analysis of microglia reactivity", "type": "in vivo, rat", "description": "as §1, §2\nBoxes demarcate representative cells in which changes could be compared."}, "[2]": {"conditions": "preliminary quantitative analyses, FIG. 7"}}}
{"smiles": "C=C(C)[C@@H]1CCC(C)=C[C@H]1c1c(O)cc(CCCCC)cc1O", "note": "[CBD, Cannabidiol]", "values": [{"measurement": "cortical volume atrophy", "setting": "[1]", "value": "trended positively towards normalization"}, {"measurement": "stress, time spent in light in the light dark box", "setting": "rat blast model of TBI", "value": "not seen"}, {"measurement": "reactive microglia morphology, CA1", "setting": "Iba1+ microglia; CBD 5 mg/kg alone vs TBI/Vehicle, FIG. 6 bottom row", "value": "seemed to reduce reactive microglia morphology"}, {"measurement": "number of Iba1+ cells, dentate gyrus of ipsilateral hippocampus", "setting": "Iba1+ microglia; CBD 5 mg/kg alone vs controls, FIG. 6 middle row", "value": "significantly greater in number in controls compared to CBD group"}, {"measurement": "Iba1+ cell density, CA1", "setting": "Iba1+ microglia; CBD 5 mg/kg alone vs injured vehicle, FIG. 6 bottom row", "value": "no overt differences"}, {"measurement": "injury-induced Iba+ microglia changes", "setting": "Iba1+ microglia; CBD 5 mg/kg alone, FIG. 6", "value": "normalization of injury-induced Iba+microglia changes"}, {"measurement": "density of Iba1+ cells, pericontusional cortex", "setting": "Iba1+ microglia; CBD 5 mg/kg alone, FIG. 6 top row", "value": "reduced density of Iba1+ cells"}, {"measurement": "activated microglia phenotypes, cortical penumbra", "setting": "Iba1+ microglia; [2]", "value": "significantly decreased"}, {"measurement": "overall microglia numbers, cortical penumbra", "setting": "Iba1+ microglia; [2]", "value": "reduced overall microglia numbers"}]}
